According to ChEMBL document CHEMBL5346964, “Discovery of LNP1892: A Precision Calcimimetic for the Treatment of Secondary Hyperparathyroidism” (J Med Chem, 2023):

How the values were obtained:
[1] = Plasma clearance in Sprague-Dawley rat at 1 mg/kg, iv measured upto 24 hrs by LC/MS-MS analysis; assay type: ADME, organism-based
[2] = AUC in cynomolgus monkey at 5 mg/kg, po measured upto 24 hrs by LC/MS-MS analysis; assay type: ADME, organism-based, Macaca fascicularis; set-up: dose 5 mg/kg, time < 24 hrs, route po; conditions: in vivo
Rattus norvegicus [3] = test: Effect on parathyroid hormone in po dosed overnight fasted Sprague-Dawley rat assessed as reduction in plasma PTH level measured after 0.5 to 6 hrs of post treatment by sandwich ELISA analysis; assay type: functional, organism-based; conditions: dose 3-30 mg/kg, time 0.5-6 hrs
[4] = Metabolic stability in rat liver cytosol measured upto 60 mins by LC-MS/MS method; assay type: ADME, subcellular; conditions: read-out: Stability
[5] = Tmax in Sprague-Dawley rat at 30 mg/kg; assay type: ADME, organism-based; conditions: in vivo
[6] = Toxicity in rat assessed as NOAEL; conditions: in vivo
[7] = Half life in Sprague-Dawley rat at 1 mg/kg, iv measured upto 24 hrs by LC-MS/MS analysis; assay type: ADME, organism-based; conditions: in vivo
Rattus norvegicus [8] = test: Acute effect on parathyroid hormone in overnight fasted adenine diet-induced chronic kidney disease Wistar rat model assessed as reduction in plasma PTH level at 3 mg/kg, po measured after 4 hrs of post treatment by sandwich ELISA analysis; assay type: functional; set-up: scale not given: the % may be the effect or the level left
[9] = Metabolic stability in dog liver S9 fraction measured upto 60 mins by LC-MS/MS method; assay type: ADME, subcellular, Canis lupus familiaris; conditions: read-out: Stability
CYP2C19 = CYP2C19 (Homo sapiens, UniProt P33261); test: Inhibition of CYP2C19 in human liver microsomes at 10 uM preincubated for 5 mins followed by NADPH addition by LC-MS/MS analysis relative to control; assay type: ADME, Microsome
Sequence of CYP2C19 (P33261 whole entry): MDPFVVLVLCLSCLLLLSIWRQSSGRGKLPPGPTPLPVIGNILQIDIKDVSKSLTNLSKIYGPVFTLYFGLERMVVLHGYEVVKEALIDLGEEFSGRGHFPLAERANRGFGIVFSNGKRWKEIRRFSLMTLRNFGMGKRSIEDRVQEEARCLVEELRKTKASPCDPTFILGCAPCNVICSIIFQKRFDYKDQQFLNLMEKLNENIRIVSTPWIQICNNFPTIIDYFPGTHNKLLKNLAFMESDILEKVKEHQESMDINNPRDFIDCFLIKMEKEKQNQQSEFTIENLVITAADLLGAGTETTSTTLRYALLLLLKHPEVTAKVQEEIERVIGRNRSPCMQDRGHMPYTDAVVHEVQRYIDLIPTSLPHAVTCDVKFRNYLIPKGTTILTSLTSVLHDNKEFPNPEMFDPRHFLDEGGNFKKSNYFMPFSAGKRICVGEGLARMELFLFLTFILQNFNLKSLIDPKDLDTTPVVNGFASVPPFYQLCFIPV

[10] = Apparent permeability across basolateral to apical side in human Caco-2 cells at 5 uM measured after 30 to 120 mins by LC-MS/MS analysis; assay type: ADME, cell-based; conditions: time 30-120 min
[11] = biological target: T1, Adenosine receptor A1 (Homo sapiens) (UniProt P30542); test: Inhibition of human recombinant A1 receptor at 10 uM relative to control
T1 sequence (whole entry): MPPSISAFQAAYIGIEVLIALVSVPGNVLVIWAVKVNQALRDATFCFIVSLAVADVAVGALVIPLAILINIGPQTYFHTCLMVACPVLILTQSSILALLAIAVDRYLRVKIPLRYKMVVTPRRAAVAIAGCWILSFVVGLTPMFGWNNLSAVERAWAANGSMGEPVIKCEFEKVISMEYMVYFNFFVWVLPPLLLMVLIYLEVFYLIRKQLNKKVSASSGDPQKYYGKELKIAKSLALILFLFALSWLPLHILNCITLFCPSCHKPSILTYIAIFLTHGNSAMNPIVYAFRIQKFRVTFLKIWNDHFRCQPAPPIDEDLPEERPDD

[12] = Tmax in BALB/c mouse at 10 mg/kg, po measured upto 24 hrs by LC/MS-MS analysis; assay type: ADME, organism-based; conditions: in vivo
[13] = Kinetic solubility of compound in SGF upto 500 uM measured after 16 hrs under shaking condition by UV-visible method; assay type: physicochemical; conditions: read-out: Kinetic_solubility
[14] = Cmax in Sprague-Dawley rat at 10 mg/kg, po administered as suspension measured upto 24 hrs by LC-MS/MS analysis; assay type: ADME, organism-based; set-up: dose 10 mg/kg, time < 24 hrs, route po; conditions: in vivo
CYP2D6 = CYP2D6 (Homo sapiens, UniProt P10635); test: Inhibition of CYP2D6 in human liver microsomes at 10 uM preincubated for 5 mins followed by NADPH addition by LC-MS/MS analysis relative to control; assay type: ADME, Microsome
Sequence of CYP2D6 (P10635 whole entry): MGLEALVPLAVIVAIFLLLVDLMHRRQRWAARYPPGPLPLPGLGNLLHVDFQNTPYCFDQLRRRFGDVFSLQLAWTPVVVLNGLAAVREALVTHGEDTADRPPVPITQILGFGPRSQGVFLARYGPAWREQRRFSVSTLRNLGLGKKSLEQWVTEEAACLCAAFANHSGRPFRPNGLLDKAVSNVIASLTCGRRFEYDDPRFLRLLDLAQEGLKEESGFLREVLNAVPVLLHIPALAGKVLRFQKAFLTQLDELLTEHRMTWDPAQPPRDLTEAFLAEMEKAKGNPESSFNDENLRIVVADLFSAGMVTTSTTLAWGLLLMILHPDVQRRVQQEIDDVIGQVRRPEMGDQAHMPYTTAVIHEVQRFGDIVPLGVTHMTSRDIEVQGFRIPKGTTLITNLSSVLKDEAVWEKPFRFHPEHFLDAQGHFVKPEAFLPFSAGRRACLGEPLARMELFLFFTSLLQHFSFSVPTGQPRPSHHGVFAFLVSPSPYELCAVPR

[15] = Tmax in Sprague-Dawley rat at 1 mg/kg, iv measured upto 24 hrs by LC-MS/MS analysis; assay type: ADME, organism-based; conditions: in vivo
[16] = Drug excretion in BALB/c mouse assessed as drug recovery in feces at 1 mg/kg, iv; assay type: ADME, organism-based; conditions: faeces, read-out: Drug recovery
[17] = Chemical stability of the compound at pH 7.4 measured after 0.5 to 4 hrs; assay type: physicochemical; conditions: buffer, time 0.5-4 hrs
[18] = Tmax in Sprague-Dawley rat at 10 mg/kg, po administered as suspension measured upto 24 hrs by LC-MS/MS analysis; assay type: ADME, organism-based; conditions: in vivo
[19] = biological target: T2, 5-hydroxytryptamine receptor 1A (Homo sapiens) (UniProt P08908); test: Inhibition of human recombinant 5-HT1A receptor at 10 uM relative to control
T2 sequence (whole entry): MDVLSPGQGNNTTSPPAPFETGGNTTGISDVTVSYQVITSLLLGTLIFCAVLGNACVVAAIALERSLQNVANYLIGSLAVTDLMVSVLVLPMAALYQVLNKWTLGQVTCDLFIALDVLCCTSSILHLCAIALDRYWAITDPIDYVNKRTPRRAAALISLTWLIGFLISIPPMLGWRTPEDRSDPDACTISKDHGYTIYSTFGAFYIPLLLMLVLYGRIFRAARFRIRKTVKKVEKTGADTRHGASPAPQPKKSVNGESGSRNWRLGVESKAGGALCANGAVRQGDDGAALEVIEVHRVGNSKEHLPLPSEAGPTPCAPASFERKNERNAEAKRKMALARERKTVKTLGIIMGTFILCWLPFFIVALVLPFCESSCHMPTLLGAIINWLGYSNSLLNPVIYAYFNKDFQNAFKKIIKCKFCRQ

[20] = Cmax in Sprague-Dawley rat at 10 mg/kg; assay type: ADME, organism-based; set-up: dose 10 mg/kg; conditions: in vivo
[21] = Cmax in human at 25 mg/kg, po administered as single dose; assay type: ADME, organism-based; set-up: dose 25 mg/kg, route po; conditions: in vivo
[22] = Volume of distribution at steady state in Sprague-Dawley rat at 1 mg/kg, iv measured upto 24 hrs by LC-MS/MS analysis; assay type: ADME, organism-based; conditions: in vivo, read-out: Vdss
[23] = Stability in rat plasma measured up to 4 hrs by LC-MS/MS method; assay type: ADME, cell-free; conditions: read-out: Stability
[24] = Metabolic stability in mouse liver cytosol measured upto 60 mins by LC-MS/MS method; assay type: ADME, subcellular; conditions: read-out: Stability
[25] = AUC(0 to t) in human at 25 mg/kg, po administered as single dose; assay type: ADME, organism-based; set-up: dose 25 mg/kg, route po; conditions: in vivo
[26] = Kinetic solubility of compound upto 500 uM in 0.1N NaOH measured after 16 hrs under shaking condition by UV-visible method; assay type: physicochemical; conditions: read-out: Kinetic_solubility
[27] = Volume of distribution at steady state in cynomolgus monkey at 1 mg/kg, iv measured upto 24 hrs by LC/MS-MS analysis; assay type: ADME, organism-based, Macaca fascicularis; conditions: in vivo, read-out: Vdss
[28] = Plasma clearance in cynomolgus monkey at 1 mg/kg, iv measured upto 24 hrs by LC/MS-MS analysis; assay type: ADME, organism-based, Macaca fascicularis
[29] = Toxicity in monkey assessed as NOAEL; set-up: species or system Macaca mulatta; conditions: rhesus monkey, in vivo
[30] = Cmax in mouse at 50 mg/kg per day, po via gavage administered for 13 weeks; assay type: ADME, organism-based; set-up: time 13 weeks, dose 50 mg/kg, route po; conditions: in vivo
[31] = Ratio of drug concentration in blood to plasma in rat; assay type: ADME, cell-free
[32] = AUC(0 to t) in human at 25 mg/kg, po administered as multiple dose on day 8; assay type: ADME, organism-based; set-up: dose 25 mg/kg, route po; conditions: in vivo
[33] = Kinetic solubility of compound upto 500 uM at pH 7.4 measured after 16 hrs under shaking condition by UV-visible method; assay type: physicochemical; conditions: buffer, read-out: Kinetic_solubility
[34] = Tmax in Sprague-Dawley rat at 300 mg/kg; assay type: ADME, organism-based; conditions: in vivo
CYP3A4 = CYP3A4 (Homo sapiens, UniProt P08684); test: Inhibition of CYP3A4 in human liver microsomes at 10 uM preincubated for 5 mins followed by NADPH addition by LC-MS/MS analysis relative to control; assay type: ADME, Microsome
Sequence of CYP3A4 (P08684 whole entry): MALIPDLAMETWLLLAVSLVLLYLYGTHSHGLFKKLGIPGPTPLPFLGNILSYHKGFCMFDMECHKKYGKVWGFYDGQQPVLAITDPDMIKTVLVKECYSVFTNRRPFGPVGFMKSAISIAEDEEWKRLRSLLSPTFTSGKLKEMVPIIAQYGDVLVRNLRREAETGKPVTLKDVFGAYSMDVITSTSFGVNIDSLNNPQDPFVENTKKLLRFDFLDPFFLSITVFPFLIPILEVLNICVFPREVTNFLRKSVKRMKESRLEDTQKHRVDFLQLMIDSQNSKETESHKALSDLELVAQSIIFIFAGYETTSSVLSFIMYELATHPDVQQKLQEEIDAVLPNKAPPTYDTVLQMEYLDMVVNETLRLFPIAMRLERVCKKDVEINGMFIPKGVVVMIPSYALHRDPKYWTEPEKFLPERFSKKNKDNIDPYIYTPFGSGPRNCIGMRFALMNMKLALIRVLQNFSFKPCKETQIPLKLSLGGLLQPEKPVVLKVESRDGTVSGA

Question: What does the source list for `Cc1ccc([C@@H]2C[C@H](CN[C@H](C)c3cccc4ccccc34)Oc3ccccc32)cc1C(=O)O.Cl`?
Answer: clearance [1]: 0.24 L/h/kg; AUC at 24 h [2]: 1300 nM·h; Activity (Rattus norvegicus [3]): Dose-Dependent Effect; remaining at 1 h [4]: > 80%; Tmax [5]: 30 min; NOAEL [6]: 25 mg/kg/day; half-life [7]: 240 min; Activity (Rattus norvegicus [8]): 89%; remaining at 1 h [9]: > 80%; inhibition at 10 µM (CYP2C19): 7%; Papp B→A at 5 µM [10]: 63 nm/s; inhibition [11]: > 50%; Tmax [12]: 15 min; solubility kinetic at 16 h, 500 µM [13]: > 200 µM; Cmax [14]: 4 µM; inhibition at 10 µM (CYP2D6): 0%; Tmax [15]: 4.8 min; dose excreted [16]: 27%; Stability [17]: Stable; Tmax [18]: 60 min; inhibition [19]: > 50%; Cmax [20]: 4 µM; Cmax [21]: 0.367 µg/mL; Vd [22]: 1 L/kg; remaining at 4 h [23]: > 80%; remaining at 1 h [24]: > 80%; AUC(0-t) [25]: 2.93 µg·h/mL; solubility kinetic at 16 h, 500 µM [26]: > 300 µM; Vd [27]: 20 L/kg; clearance [28]: 9.06 L/h/kg; NOAEL [29]: 50 mg/kg/day; Cmax [30]: 34.8 µg/mL; blood plasma ratio [31]: 0.64; AUC(0-t) [32]: 5.09 µg·h/mL; solubility kinetic at 16 h, 500 µM [33]: > 200 µM; Tmax [34]: 60 min; inhibition at 10 µM (CYP3A4): 0%
